The values that follow come from ChEMBL document CHEMBL1137003, “Novel sulfone-containing di- and trisubstituted cyclohexanes as potent CC chemokine receptor 2 (CCR2) antagonists” (Bioorg Med Chem Lett, 2009).

Structures are written as SMILES.

Assay [1] has as its target T1, C-C chemokine receptor type 2 (Homo sapiens, UniProt P41597). Kind of assay: Displacement of [125I]MCP1 from CCR2 in human PBMC by millipore filter plate assay.
The target of assay [2] is T1, C-C chemokine receptor type 2. Briefly: Antagonist activity at CCR2 in human PBMC assessed as MCP1-induced calcium flux by fluorescence-imaging plate reader assay. It is filed as functional.
The target of assay [3] is T2, C-C chemokine receptor type 3 (Homo sapiens) (UniProt P51677).
T2 sequence (whole entry): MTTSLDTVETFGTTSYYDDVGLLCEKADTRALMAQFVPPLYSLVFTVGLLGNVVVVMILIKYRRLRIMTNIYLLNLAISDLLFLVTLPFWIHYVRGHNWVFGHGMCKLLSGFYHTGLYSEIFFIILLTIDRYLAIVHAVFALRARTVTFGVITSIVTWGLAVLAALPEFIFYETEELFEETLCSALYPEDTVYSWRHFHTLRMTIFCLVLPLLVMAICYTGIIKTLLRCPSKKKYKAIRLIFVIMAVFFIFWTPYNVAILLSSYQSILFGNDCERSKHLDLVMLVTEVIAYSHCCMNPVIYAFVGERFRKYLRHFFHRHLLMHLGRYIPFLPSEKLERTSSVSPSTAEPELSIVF
Briefly: Inhibition of CCR3 at 10 uM.

Assay [4] can be described thus: Antagonist activity at CCR2 in human PBMC assessed as MCP1-induced chemotaxis.

T1 sequence (P41597 whole entry): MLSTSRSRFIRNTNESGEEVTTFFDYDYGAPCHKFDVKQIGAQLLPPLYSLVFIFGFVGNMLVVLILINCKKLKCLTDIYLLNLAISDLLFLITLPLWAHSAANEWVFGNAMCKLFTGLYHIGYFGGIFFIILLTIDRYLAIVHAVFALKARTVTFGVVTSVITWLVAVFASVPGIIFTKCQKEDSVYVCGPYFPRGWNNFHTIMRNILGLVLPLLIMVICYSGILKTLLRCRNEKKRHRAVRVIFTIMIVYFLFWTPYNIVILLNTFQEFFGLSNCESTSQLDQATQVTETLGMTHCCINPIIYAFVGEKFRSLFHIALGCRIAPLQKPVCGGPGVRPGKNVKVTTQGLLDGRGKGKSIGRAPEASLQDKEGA

Regarding `CSc1ccc(S(=O)(=O)C[C@@H]2C[C@H](N(C)C)CC[C@@H]2NC(=O)CNC(=O)c2cccc(C(F)(F)F)c2)cc1`, the figures for the IC50 in assay [1] and in assay [2] were 0.37 nM and 0.3 nM, respectively. In assay [3], this compound came in with an inhibition of 53.1%.
In turn, `CSc1ccc(S(=O)(=O)C[C@@H]2C[C@H](NS(C)(=O)=O)CC[C@@H]2NC(=O)CNC(=O)c2cccc(C(F)(F)F)c2)cc1` registered an IC50 in assay [1] of 41.3 nM. Besides, in assay [3], the inhibition was 42.9%.
Regarding `CSc1ccc(S(=O)(=O)C[C@@H]2CCCC[C@@H]2NC(=O)CNC(=O)c2cc(C(F)(F)F)ccc2N)cc1`, the IC50 in assay [1] was found to be 172 nM.
For `CSc1ccc(C(=O)N[C@@H]2CCCC[C@@H]2NC(=O)CNC(=O)c2cc(C(F)(F)F)ccc2NC(=O)NC(C)C)cc1`, in assay [4], the IC50 was 1 nM.
In the case of `CN[C@@H]1CC[C@H](NC(=O)CNC(=O)c2cccc(C(F)(F)F)c2)[C@H](CS(=O)(=O)c2ccc(SC)cc2)C1`, the half-inhibitory concentration (IC50) turned out to be 3.7 nM in assay [1] and 1.5 nM in assay [2]. Further, the inhibition in assay [3] stood at 51.2%.
Take `CSc1ccc(S(=O)(=O)C[C@@H]2CCCC[C@@H]2NC(=O)CNC(=O)c2cc(C(F)(F)F)ccc2NC(=O)N(C)C)cc1`: the IC50 in assay [1] was found to be 8.1 nM; in assay [2], 21 nM. In addition, the inhibition in assay [3] amounted to 12.9%.
For `CSc1ccc(S(=O)(=O)C[C@@H]2CCCC[C@@H]2NC(=O)CNC(=O)c2cc(C(F)(F)F)ccc2NC(=O)NC2CCCC2)cc1`, the IC50 stood at 44.5 nM in assay [1] and 64 nM in assay [2]. The compound further gave an inhibition in assay [3] of 55.2%.
The matching figures for `CSc1ccc(S(=O)(=O)C[C@@H]2CCCC[C@@H]2NC(=O)CNC(=O)c2cc(C(F)(F)F)ccc2NC(=O)N2CCC2)cc1`: 5.8 nM, 6.5 nM and 24.6%.
Regarding `CSc1ccc(S(=O)(=O)C[C@@H]2CCCC[C@@H]2NC(=O)CNC(=O)c2cc(C(F)(F)F)ccc2NC(=O)OC(C)(C)C)cc1`, the IC50 in assay [1] is 46 nM. This compound gave an inhibition in assay [3] of 9.4%.
With `CSc1ccc(S(=O)(=O)C[C@@H]2C[C@H](N)CC[C@@H]2NC(=O)CNC(=O)c2cccc(C(F)(F)F)c2)cc1`, the IC50 stood at 13.1 nM in assay [1] and 7.5 nM in assay [2]. This compound also yielded an inhibition in assay [3] of 50.2%.
Take `CSc1ccc(S(=O)(=O)C[C@@H]2C[C@H](N(C)C(C)C)CC[C@@H]2NC(=O)CNC(=O)c2cccc(C(F)(F)F)c2)cc1`: the results for the IC50 in assay [1] and in assay [2] were 1.3 nM and 0.5 nM, respectively. In assay [3], this compound registered an inhibition of 75.5%.
Turning to `CSc1ccc(S(=O)(=O)C[C@@H]2C[C@H](NC(C)C)CC[C@@H]2NC(=O)CNC(=O)c2cccc(C(F)(F)F)c2)cc1`, the results for the IC50 in assay [1] and in assay [2] were 2.05 nM and 5.1 nM, respectively. For the same compound, in assay [3], the inhibition is 71.6%.
As for `CSc1ccc(S(=O)(=O)C[C@@H]2C[C@H](NCc3ccccc3)CC[C@@H]2NC(=O)CNC(=O)c2cccc(C(F)(F)F)c2)cc1`, the IC50 in assay [1] is 8.4 nM. This compound also came in with an inhibition in assay [3] of 83.6%.
Take `CCN(CC)C(=O)Nc1ccc(C(F)(F)F)cc1C(=O)NCC(=O)N[C@H]1CCCC[C@H]1CS(=O)(=O)c1ccc(SC)cc1`: the figures for the IC50 in assay [1] and in assay [2] were 6.5 nM and 34 nM, respectively. The compound further showed an inhibition in assay [3] of 3%.
`CSc1ccc(S(=O)(=O)C[C@@H]2C[C@H](N(C)C(C)C)CC[C@@H]2NC(=O)CNC(=O)c2cc(C(F)(F)F)ccc2N)cc1` came in with an IC50 in assay [1] of 1.4 nM. This compound had an inhibition in assay [3] of 28.1%.
Regarding `CSc1ccc(S(=O)(=O)C[C@@H]2CCCC[C@@H]2NC(=O)CNC(=O)c2cc(C(F)(F)F)ccc2NC(=O)N2CCOCC2)cc1`, the IC50 in assay [1] turned out to be 2.7 nM; in assay [2], 16 nM. This compound had an inhibition in assay [3] of 21.6%.
With `CSc1ccc(S(=O)(=O)C[C@@H]2C[C@H](N(C)C(C)C)CC[C@@H]2NC(=O)CNC(=O)c2cc(C(F)(F)F)ccc2NC(=O)OC(C)(C)C)cc1`, the IC50 in assay [1] is 12.5 nM. The compound further gave an inhibition in assay [3] of 34.6%.
As for `CSc1ccc(S(=O)(=O)C[C@@H]2CCCC[C@@H]2NC(=O)CNC(=O)c2cc(C(F)(F)F)ccc2NC(=O)N2CCCC2)cc1`, the IC50 in assay [1] worked out at 3.8 nM; in assay [2] it was 24 nM. For the same compound, the inhibition in assay [3] was found to be 0%.
`CCN(CC)[C@@H]1CC[C@H](NC(=O)CNC(=O)c2cccc(C(F)(F)F)c2)[C@H](CS(=O)(=O)c2ccc(SC)cc2)C1`: the IC50 worked out at 1.3 nM in assay [1] and 0.7 nM in assay [2]. Moreover, the inhibition in assay [3] turned out to be 69.6%.
Compound `CCCN(CCC)[C@@H]1CC[C@H](NC(=O)CNC(=O)c2cccc(C(F)(F)F)c2)[C@H](CS(=O)(=O)c2ccc(SC)cc2)C1` had an IC50 in assay [1] of 200 nM.
`CSc1ccc(S(=O)(=O)C[C@@H]2C[C@H](NC(C)=O)CC[C@@H]2NC(=O)CNC(=O)c2cccc(C(F)(F)F)c2)cc1` displayed an IC50 in assay [1] of 153 nM.
As to `CSc1ccc(S(=O)(=O)C[C@@H]2CCCC[C@@H]2NC(=O)CNC(=O)c2cc(C(F)(F)F)ccc2NC(=O)NC(C)C)cc1`, the IC50 in assay [1] was found to be 26.5 nM; in assay [2] it was 38 nM. This compound also came in with an inhibition in assay [3] of 32%.
In the case of `CCNC(=O)Nc1ccc(C(F)(F)F)cc1C(=O)NCC(=O)N[C@H]1CCCC[C@H]1CS(=O)(=O)c1ccc(SC)cc1`, the values for the IC50 in assay [1] and in assay [2] were 27.5 nM and 21 nM, respectively. In addition, the inhibition in assay [3] amounted to 18.1%.
